Measurements: PubChem BioAssay (NCI)
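Growth conditions: 96-well plates. Treatment: test compound, 48 hours, 5 concentrations. Analysis: linear interpolation between bracketing concentrations; unreached endpoints set to highest concentration. Definition used: TGI = concentration required for complete inhibition of growth.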

Experiments:
Assay in all cases: NCI anticancer screen, dose series, 48 h
ACHN renal = tested on: ACHN renal
SN12C renal = tested on: SN12C renal
SK-MEL-5 melanoma = tested on: SK-MEL-5 melanoma
RXF-631 renal = tested on: RXF-631 renal
U251 CNS = tested on: U251 CNS
TK-10 renal = tested on: TK-10 renal
NCI-H23 lung = tested on: NCI-H23 lung
UACC-62 melanoma = tested on: UACC-62 melanoma
M14 melanoma = tested on: M14 melanoma
SK-MEL-28 melanoma = tested on: SK-MEL-28 melanoma
UO-31 renal = tested on: UO-31 renal
CAKI-1 renal = tested on: CAKI-1 renal
HOP-62 NSCLC = tested on: HOP-62 NSCLC
HCT-116 colon = tested on: HCT-116 colon
SK-OV-3 ovarian = tested on: SK-OV-3 ovarian
OVCAR-4 ovarian = tested on: OVCAR-4 ovarian
OVCAR-8 ovarian = tested on: OVCAR-8 ovarian
A549 NSCLC = tested on: A549 NSCLC
SW-620 colon = tested on: SW-620 colon
SK-MEL-2 melanoma = tested on: SK-MEL-2 melanoma
OVCAR-3 ovarian = tested on: OVCAR-3 ovarian
NCI-H522 lung = tested on: NCI-H522 lung
EKVX NSCLC = tested on: EKVX NSCLC
KM20L2 colon = tested on: KM20L2 colon
NCI-H460 lung = tested on: NCI-H460 lung
786-0 renal = tested on: 786-0 renal
DLD-1 colon = tested on: DLD-1 colon
COLO 205 colon = tested on: COLO 205 colon
LOX IMVI melanoma = tested on: LOX IMVI melanoma
UACC-257 melanoma = tested on: UACC-257 melanoma
SF-295 CNS = tested on: SF-295 CNS
MALME-3M melanoma = tested on: MALME-3M melanoma
RXF 393 renal = tested on: RXF 393 renal
HCT-15 colon = tested on: HCT-15 colon
A498 renal = tested on: A498 renal
HT29 colon = tested on: HT29 colon
HOP-92 NSCLC = tested on: HOP-92 NSCLC
SF-539 CNS = tested on: SF-539 CNS
HOP-18 NSCLC = tested on: HOP-18 NSCLC
HL-60(TB) leukemia = tested on: HL-60(TB) leukemia
M19-MEL melanoma = tested on: M19-MEL melanoma
SNB-75 CNS = tested on: SNB-75 CNS
DMS 273 small cell lung = tested on: DMS 273 small cell lung
SF-268 CNS = tested on: SF-268 CNS
MOLT-4 leukemia = tested on: MOLT-4 leukemia
SNB-78 CNS = tested on: SNB-78 CNS
LXFL 529 NSCLC = tested on: LXFL 529 NSCLC
OVCAR-5 ovarian = tested on: OVCAR-5 ovarian
NCI-H226 lung = tested on: NCI-H226 lung
HCC-2998 colon = tested on: HCC-2998 colon
RPMI-8226 leukemia = tested on: RPMI-8226 leukemia
IGROV1 ovarian = tested on: IGROV1 ovarian
DMS 114 small cell lung = tested on: DMS 114 small cell lung
BT-549 breast = tested on: BT-549 breast
K-562 leukemia = tested on: K-562 leukemia
HS 578T breast = tested on: HS 578T breast
DU-145 prostate = tested on: DU-145 prostate
SNB-19 CNS = tested on: SNB-19 CNS
MCF7 breast = tested on: MCF7 breast
CCRF-CEM leukemia = tested on: CCRF-CEM leukemia
XF 498 CNS = tested on: XF 498 CNS
KM12 colon = tested on: KM12 colon
MDA-MB-435 = tested on: MDA-MB-435
SR leukemia = tested on: SR leukemia
T-47D breast = tested on: T-47D breast

c1ccc(-c2[o+]c(-c3ccccc3)c(-c3ccccc3)c(-c3ccccc3)c2-c2ccccc2)cc1
TGI (ACHN renal): > 100 µM
TGI (SN12C renal): > 100 µM
TGI (SK-MEL-5 melanoma): > 100 µM
TGI (RXF-631 renal): > 100 µM
TGI (U251 CNS): > 100 µM
TGI (TK-10 renal): > 100 µM
TGI (NCI-H23 lung): > 100 µM
TGI (UACC-62 melanoma): > 100 µM
TGI (M14 melanoma): > 100 µM
TGI (SK-MEL-28 melanoma): > 100 µM
TGI (UO-31 renal): > 100 µM
TGI (CAKI-1 renal): > 100 µM
TGI (HOP-62 NSCLC): > 100 µM
TGI (HCT-116 colon): > 100 µM
TGI (SK-OV-3 ovarian): > 100 µM
TGI (OVCAR-4 ovarian): > 100 µM
TGI (OVCAR-8 ovarian): > 100 µM
TGI (A549 NSCLC): > 100 µM
TGI (SW-620 colon): > 100 µM
TGI (SK-MEL-2 melanoma): > 100 µM
TGI (OVCAR-3 ovarian): > 100 µM
TGI (NCI-H522 lung): > 100 µM
TGI (EKVX NSCLC): > 100 µM
TGI (KM20L2 colon): > 100 µM
TGI (NCI-H460 lung): > 100 µM
TGI (786-0 renal): > 100 µM
TGI (DLD-1 colon): > 100 µM
TGI (COLO 205 colon): > 100 µM
TGI (LOX IMVI melanoma): > 100 µM
TGI (UACC-257 melanoma): > 100 µM
TGI (SF-295 CNS): > 100 µM
TGI (MALME-3M melanoma): > 100 µM
TGI (RXF 393 renal): > 100 µM
TGI (HCT-15 colon): > 100 µM
TGI (A498 renal): > 100 µM
TGI (HT29 colon): > 100 µM
TGI (HOP-92 NSCLC): > 100 µM
TGI (SF-539 CNS): > 100 µM
TGI (HOP-18 NSCLC): > 100 µM
TGI (HL-60(TB) leukemia): > 100 µM
TGI (M19-MEL melanoma): > 100 µM
TGI (SNB-75 CNS): > 100 µM
TGI (DMS 273 small cell lung): > 100 µM
TGI (SF-268 CNS): > 100 µM
TGI (MOLT-4 leukemia): > 100 µM
TGI (SNB-78 CNS): > 100 µM
TGI (LXFL 529 NSCLC): > 100 µM
TGI (OVCAR-5 ovarian): > 100 µM
TGI (NCI-H226 lung): > 100 µM
TGI (HCC-2998 colon): > 100 µM
TGI (RPMI-8226 leukemia): > 100 µM
TGI (IGROV1 ovarian): > 100 µM

O=C(O)COc1ccc(C(=O)/C(SS/C(C(=O)c2ccc(OCC(=O)O)c(Cl)c2Cl)=C2\C=C(c3ccc(F)cc3)SS2)=C2/C=C(c3ccc(F)cc3)SS2)c(Cl)c1Cl
TGI (ACHN renal): 56 µM
TGI (SN12C renal): 38.7 µM
TGI (SK-MEL-5 melanoma): 51.5 µM
TGI (DMS 114 small cell lung): 12.7 µM
TGI (BT-549 breast): 71.5 µM
TGI (U251 CNS): 24.7 µM
TGI (TK-10 renal): 99.2 µM
TGI (K-562 leukemia): 32.6 µM
TGI (HS 578T breast): 19 µM
TGI (DU-145 prostate): > 100 µM
TGI (NCI-H23 lung): 33.7 µM
TGI (UACC-62 melanoma): 23.9 µM
TGI (M14 melanoma): 54.8 µM
TGI (SK-MEL-28 melanoma): 38.8 µM
TGI (SNB-19 CNS): 53.7 µM
TGI (UO-31 renal): 36.4 µM
TGI (CAKI-1 renal): > 77.9 µM
TGI (HOP-62 NSCLC): > 84.8 µM
TGI (HCT-116 colon): 25.6 µM
TGI (SK-OV-3 ovarian): > 88.7 µM
TGI (OVCAR-4 ovarian): 40.3 µM
TGI (OVCAR-8 ovarian): 55.8 µM
TGI (A549 NSCLC): > 93.4 µM
TGI (SW-620 colon): 36.3 µM
TGI (MCF7 breast): > 100 µM
TGI (SK-MEL-2 melanoma): 34.7 µM
TGI (OVCAR-3 ovarian): 20.7 µM
TGI (NCI-H522 lung): 8.44 µM
TGI (EKVX NSCLC): > 81.4 µM
TGI (KM20L2 colon): > 95.8 µM
TGI (CCRF-CEM leukemia): 18.1 µM
TGI (NCI-H460 lung): 49.1 µM
TGI (786-0 renal): > 57 µM
TGI (DLD-1 colon): > 53.7 µM
TGI (COLO 205 colon): 25 µM
TGI (XF 498 CNS): 27 µM
TGI (LOX IMVI melanoma): 12.9 µM
TGI (UACC-257 melanoma): 68.8 µM
TGI (KM12 colon): 32.6 µM
TGI (SF-295 CNS): 69.8 µM
TGI (MALME-3M melanoma): 77.3 µM
TGI (HCT-15 colon): 28.3 µM
TGI (A498 renal): 77.5 µM
TGI (MDA-MB-435): > 100 µM
TGI (HT29 colon): 70.6 µM
TGI (HOP-92 NSCLC): 15.4 µM
TGI (SF-539 CNS): 26.9 µM
TGI (HOP-18 NSCLC): 43.6 µM
TGI (SR leukemia): 13.4 µM
TGI (HL-60(TB) leukemia): 6.03 µM
TGI (M19-MEL melanoma): 44.6 µM
TGI (SNB-75 CNS): 27.4 µM
TGI (DMS 273 small cell lung): 27.9 µM
TGI (SF-268 CNS): 23.1 µM
TGI (MOLT-4 leukemia): 31.2 µM
TGI (SNB-78 CNS): 43.1 µM
TGI (LXFL 529 NSCLC): 13.6 µM
TGI (T-47D breast): 31.3 µM
TGI (OVCAR-5 ovarian): 74.7 µM
TGI (NCI-H226 lung): 40.4 µM
TGI (HCC-2998 colon): > 100 µM
TGI (RPMI-8226 leukemia): 31.5 µM
TGI (IGROV1 ovarian): 41.7 µM

COC12OCCN(CCO)C1=CC(=O)C1(C)N=NC(C)C12 (centres undefined)
TGI (ACHN renal): > 100 µM
TGI (SN12C renal): > 100 µM
TGI (SK-MEL-5 melanoma): > 100 µM
TGI (DMS 114 small cell lung): > 100 µM
TGI (RXF-631 renal): > 100 µM
TGI (U251 CNS): > 100 µM
TGI (TK-10 renal): > 100 µM
TGI (K-562 leukemia): > 100 µM
TGI (NCI-H23 lung): > 100 µM
TGI (UACC-62 melanoma): > 100 µM
TGI (M14 melanoma): > 100 µM
TGI (SK-MEL-28 melanoma): > 100 µM
TGI (UO-31 renal): > 100 µM
TGI (CAKI-1 renal): > 100 µM
TGI (HCT-116 colon): > 100 µM
TGI (SK-OV-3 ovarian): > 100 µM
TGI (OVCAR-8 ovarian): > 100 µM
TGI (A549 NSCLC): > 100 µM
TGI (SW-620 colon): > 100 µM
TGI (OVCAR-3 ovarian): > 100 µM
TGI (NCI-H522 lung): > 100 µM
TGI (EKVX NSCLC): > 100 µM
TGI (CCRF-CEM leukemia): > 100 µM
TGI (NCI-H460 lung): > 100 µM
TGI (786-0 renal): > 100 µM
TGI (DLD-1 colon): > 100 µM
TGI (COLO 205 colon): > 100 µM
TGI (LOX IMVI melanoma): > 100 µM
TGI (UACC-257 melanoma): > 100 µM
TGI (KM12 colon): > 100 µM
TGI (SF-295 CNS): > 100 µM
TGI (MALME-3M melanoma): > 100 µM
TGI (RXF 393 renal): > 100 µM
TGI (HCT-15 colon): > 100 µM
TGI (A498 renal): > 100 µM
TGI (HT29 colon): > 100 µM
TGI (HOP-92 NSCLC): > 100 µM
TGI (SF-539 CNS): > 100 µM
TGI (HOP-18 NSCLC): > 100 µM
TGI (M19-MEL melanoma): > 100 µM
TGI (SNB-75 CNS): > 100 µM
TGI (DMS 273 small cell lung): > 100 µM
TGI (MOLT-4 leukemia): > 100 µM
TGI (SNB-78 CNS): > 100 µM
TGI (LXFL 529 NSCLC): > 100 µM
TGI (NCI-H226 lung): > 100 µM
TGI (HCC-2998 colon): > 100 µM
TGI (RPMI-8226 leukemia): > 100 µM
TGI (IGROV1 ovarian): > 100 µM
